Reference: patent US11629171B2, “Beta-hairpin peptidomimetics” (POLYPHOR AG, priority 2017, dated 2023)
Values after ≈ are worked out from the molar mass of the structure shown. Where a SMILES comes first, the peptide text is derived from it. Bridges are numbered along the chain shown (N, C = ends). Roman numbers before positions name the chains, in order. [ ]: non-standard residue; d: D form. The star is where a group is joined. Thr(ol) = C[C@@H](O)[C@H](N)CO; Pen = CC(C)(S)[C@H](N)C(=O)O; Tle = CC(C)(C)[C@H](N)C(=O)O; Hiv = CC(C)[C@H](O)C(=O)O; dDab = NCC[C@@H](N)C(=O)O; hSer = N[C@@H](CCO)C(=O)O; NHCH(CH2OH)2 = OCC(CO)N*; Dab = NCC[C@H](N)C(=O)O; Abu = CC[C@H](N)C(=O)O; Dap = NC[C@H](N)C(=O)O

Key:
[1] = test system: Acinetobacter baumannii 872842; assay type: cell-based; conditions: 872842
Procedure, shortened: (§1)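 Standard CLSI microdilution testing: bacterial suspensions standardized against 0.5 McFarland to about 10^6 CFU/mL in MH-II broth meet serially halved peptide concentrations in broth containing 0.002% polysorbate 80; incubation lasts 18-20 h at 35° C before the MIC is scored.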

[2] = test system: Acinetobacter baumannii DSM 30008; assay type: cell-based; conditions: DSM 30008
Procedure, shortened: as §1

[3] = test system: Enterobacter cloacae 848840; assay type: cell-based; conditions: 848840
Procedure, shortened: as §1

[4] = test system: Escherichia coli 926415; assay type: cell-based; conditions: 926415
Procedure, shortened: as §1

[5] = test system: Escherichia coli ATCC 25922; assay type: cell-based; conditions: ATCC 25922
Procedure, shortened: as §1

[6] = test system: Klebsiella pneumoniae 968733; assay type: cell-based; conditions: 968733
Procedure, shortened: as §1

[7] = test system: Klebsiella pneumoniae SSI #3010; assay type: cell-based; conditions: SSI #3010
Procedure, shortened: as §1

[8] = test system: Pseudomonas aeruginosa ATCC 27853; assay type: cell-based; conditions: ATCC 27853
Procedure, shortened: as §1

[9] = test system: human red blood cells (hRBC); assay: Hemolysis; assay type: cell-based; conditions: red cells of human, 1 h, 200
Procedure, shortened: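 Washed fresh human RBC (20% v/v) incubated with peptide at 200 μg/mL for 1 h at 37° C with shaking. Supernatant OD540 measured after dilution, blank corrected; percent hemolysis = OD540 peptide / OD540 of 2% Triton X-100 lysis × 100, PBS with 10% water as 0%.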

[10] = test system: male ICR mice; assay: Tolerability in a mouse model (Maximum Tolerated Dose assay); assay type: in vivo; conditions: groups of 3
Procedure, shortened: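 Peptides in 0.9% NaCl (pH 6.5-7.6) given s.c. at 30 or 40 mg/kg, twice 12 h apart, to groups of 3 male ICR mice (23±3 g). Acute toxic signs (mortality, convulsions, tremors, sedation) and autonomic effects (diarrhea, salivation, piloerection) observed for 30 min after each dose.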

[11] = 2 × 40 mg/kg s.c. at a 12-hr interval
[12] = 2 × 30 mg/kg s.c. at a 12-hr interval

SMILES	MIC [1] [µg/mL]	Acinetobacter baumannii DSM 30008 MIC [2] [µg/mL]	MIC [3] [µg/mL]	MIC [4] [µg/mL]	Escherichia coli ATCC 25922 MIC [5] [µg/mL]	MIC [6] [µg/mL]	Klebsiella pneumoniae SSI #3010 MIC [7] [µg/mL]	Pseudomonas aeruginosa ATCC 27853 MIC [8] [µg/mL]	Hemolysis at 200 μg/mL [9] [%]	Mortality and dose [10, 11]	MIC [2] [µg/mL]	MIC [5] [µg/mL]	MIC [7] [µg/mL]	MIC [8] [µg/mL]	Mortality and dose [10, 12]
CC(C)C[C@@H]1NC(=O)[C@@H](CC(C)C)NC(=O)[C@H](CCN)NC(=O)[C@@H](NC(=O)[C@H](CN)NC(=O)[C@@H](NC(=O)[C@H](CCN)NC(=O)CC[C@@H]2NC(=O)[C@H](CCN)NC(=O)[C@H](Cc3ccc(O)cc3)NC(=O)[C@@H](NC(=O)[C@@H](O)C(C)C)C(C)(C)SSC[C@@H](C(=O)N[C@@H](CO)C(N)=O)NC(=O)[C@H](C(C)C)NC(=O)[C@H](CO)NC(=O)[C@H](Cc3c[nH]c4ccccc34)NC(=O)[C@H](CO)NC(=O)[C@@H](CCN)NC2=O)[C@@H](C)O)CCNC(=O)[C@H]([C@@H](C)O)NC(=O)[C@H](CCN)NC(=O)[C@H](CCN)NC1=O [Ex. 340] (I: H-[Hiv][Pen]Y[Dab]E[dDab]SWSVCS-NH2 / II: [Dab]T[Dap][Dab][Dab][dL]L[Dab][Dab]T; disulfide I:2-I:11; amide I:5-II:N; lactam II:4-II:C)	0.0625 (≈ 0.0262 µM)	0.0625	0.125 (≈ 0.0524 µM)	0.125 (≈ 0.0524 µM)	0.03125	0.25 (≈ 0.105 µM)	0.0625	0.25	<1	0/3 died at 2 × 40 mg/kg	–	–	–	–	–
CC[C@@H]1NC(=O)[C@@H](CC(C)C)NC(=O)[C@H](CCN)NC(=O)[C@@H](NC(=O)[C@H](CN)NC(=O)[C@@H](NC(=O)[C@H](CCN)NC(=O)CC[C@@H]2NC(=O)[C@H](CCN)NC(=O)[C@H](Cc3ccc(O)cc3)NC(=O)[C@@H](NC(=O)[C@@H](NC(C)=O)C(C)C)CSSC[C@@H](C(=O)N[C@@H](CO)C(N)=O)NC(=O)[C@H]([C@@H](C)CC)NC(=O)[C@H](CO)NC(=O)[C@H](Cc3c[nH]c4ccccc34)NC(=O)[C@H](CO)NC(=O)[C@@H](CCN)NC2=O)[C@@H](C)O)CCNC(=O)[C@H]([C@@H](C)O)NC(=O)[C@H](CCN)NC(=O)[C@H](CCN)NC1=O [Ex. 338] (I: Ac-VCY[Dab]E[dDab]SWSICS-NH2 / II: [Dab]T[Dap][Dab][Dab][dL][Abu][Dab][Dab]T; disulfide I:2-I:11; amide I:5-II:N; lactam II:4-II:C)	0.0625 (≈ 0.0262 µM)	0.03125	0.0625 (≈ 0.0262 µM)	0.0625 (≈ 0.0262 µM)	0.03125	0.125 (≈ 0.0524 µM)	0.03125	0.125	<1	0/3 died at 2 × 40 mg/kg	–	–	–	–	–
CC(=O)N[C@H](C(=O)N[C@H]1CSSC[C@@H](C(=O)NC(CO)CO)NC(=O)[C@H](C(C)C)NC(=O)[C@H](CO)NC(=O)[C@H](Cc2c[nH]c3ccccc23)NC(=O)[C@H](CO)NC(=O)[C@@H](CCN)NC(=O)[C@H](CCC(=O)N[C@@H](CCN)C(=O)N[C@H](C(=O)N[C@@H](CN)C(=O)N[C@H]2CCNC(=O)[C@H]([C@@H](C)O)NC(=O)[C@H](CCN)NC(=O)[C@H](CCN)NC(=O)[C@H](CC(C)C)NC(=O)[C@@H](CC(C)C)NC(=O)[C@H](CCN)NC2=O)[C@@H](C)O)NC(=O)[C@H](CCN)NC(=O)[C@H](Cc2ccc(O)cc2)NC1=O)C(C)C [Ex. 116] (I: Ac-VCY[Dab]E[dDab]SWSVC-{NHCH(CH2OH)2} / II: [Dab]T[Dap][Dab][Dab][dL]L[Dab][Dab]T; disulfide I:2-I:11; amide I:5-II:N; lactam II:4-II:C)	0.0625 (≈ 0.0262 µM)	–	0.03125 (≈ 0.0131 µM)	0.125 (≈ 0.0524 µM)	–	0.25 (≈ 0.105 µM)	–	–	<1	–	0.03125 (≈ 0.0131 µM)	0.03125 (≈ 0.0131 µM)	0.03125 (≈ 0.0131 µM)	0.125 (≈ 0.0524 µM)	0/3 died at 2 × 30 mg/kg
CC(=O)N[C@@H](Cc1ccc(O)cc1)C(=O)N[C@H]1CSSC[C@@H](C(=O)NC(CO)CO)NC(=O)[C@H](C(C)(C)C)NC(=O)[C@H](CO)NC(=O)[C@H](Cc2c[nH]c3ccccc23)NC(=O)[C@H](CCO)NC(=O)[C@@H](CCN)NC(=O)[C@H](CCC(=O)N[C@@H](CCN)C(=O)N[C@H](C(=O)N[C@@H](CCN)C(=O)N[C@H]2CCNC(=O)[C@H]([C@@H](C)O)NC(=O)[C@H](CCN)NC(=O)[C@H](CCN)NC(=O)[C@H](CC(C)C)NC(=O)[C@@H](CC(C)C)NC(=O)[C@H](CCN)NC2=O)[C@@H](C)O)NC(=O)[C@H](CCN)NC(=O)[C@H](C(C)C)NC1=O [Ex. 96] (I: Ac-YCV[Dab]E[dDab][hSer]WS[Tle]C-{NHCH(CH2OH)2} / II: [Dab]T[Dab][Dab][Dab][dL]L[Dab][Dab]T; disulfide I:2-I:11; amide I:5-II:N; lactam II:4-II:C)	0.5 (≈ 0.206 µM)	–	8 (≈ 3.3 µM)	0.5 (≈ 0.206 µM)	–	0.125 (≈ 0.0515 µM)	–	–	<1	–	0.125 (≈ 0.0515 µM)	0.0625 (≈ 0.0257 µM)	0.125 (≈ 0.0515 µM)	0.125 (≈ 0.0515 µM)	0/3 died at 2 × 30 mg/kg
CC[C@@H]1NC(=O)[C@@H](CC(C)C)NC(=O)[C@H](CCN)NC(=O)[C@@H](NC(=O)[C@H](CN)NC(=O)[C@@H](NC(=O)[C@H](CCN)NC(=O)CC[C@@H]2NC(=O)[C@H](CO)NC(=O)[C@H](Cc3ccc(O)cc3)NC(=O)[C@@H](NC(=O)[C@@H](NC(C)=O)C(C)C)CSSC[C@@H](C(=O)N[C@@H](CO)C(N)=O)NC(=O)[C@H]([C@@H](C)CC)NC(=O)[C@H](CO)NC(=O)[C@H](Cc3c[nH]c4ccccc34)NC(=O)[C@H](CCN)NC(=O)[C@@H](CCN)NC2=O)[C@@H](C)O)CCNC(=O)[C@H]([C@@H](C)O)NC(=O)[C@H](CCN)NC(=O)[C@H](CCN)NC1=O [Ex. 257] (I: Ac-VCYSE[dDab][Dab]WSICS-NH2 / II: [Dab]T[Dap][Dab][Dab][dL][Abu][Dab][Dab]T; disulfide I:2-I:11; amide I:5-II:N; lactam II:4-II:C)	0.03125 (≈ 0.0131 µM)	–	0.0625 (≈ 0.0262 µM)	0.0625 (≈ 0.0262 µM)	–	0.125 (≈ 0.0524 µM)	–	–	1	–	0.03125 (≈ 0.0131 µM)	0.03125 (≈ 0.0131 µM)	0.03125 (≈ 0.0131 µM)	0.0625 (≈ 0.0262 µM)	0/3 died at 2 × 30 mg/kg
CC(C)C[C@@H]1NC(=O)[C@@H](CC(C)C)NC(=O)[C@H](CCN)NC(=O)[C@@H](NC(=O)[C@H](CCN)NC(=O)[C@@H](NC(=O)[C@H](CCN)NC(=O)CC[C@@H]2NC(=O)[C@H](CN)NC(=O)[C@H](Cc3ccc(O)cc3)NC(=O)[C@@H](NC(=O)[C@@H](O)C(C)C)CSSC[C@@H](C(=O)N[C@H](CO)[C@@H](C)O)NC(=O)[C@H](C(C)(C)C)NC(=O)[C@H](CO)NC(=O)[C@H](Cc3c[nH]c4ccccc34)NC(=O)[C@H]([C@@H](C)O)NC(=O)[C@@H](CCN)NC2=O)[C@@H](C)O)CCNC(=O)[C@H]([C@@H](C)O)NC(=O)[C@H](CCN)NC(=O)[C@H](CCN)NC1=O [Ex. 58] (I: H-[Hiv]CY[Dap]E[dDab]TWS[Tle]C[Thr(ol)] / II: [Dab]T[Dab][Dab][Dab][dL]L[Dab][Dab]T; disulfide I:2-I:11; amide I:5-II:N; lactam II:4-II:C)	0.0625 (≈ 0.0262 µM)	–	0.125 (≈ 0.0524 µM)	0.125 (≈ 0.0524 µM)	–	0.25 (≈ 0.105 µM)	–	–	1	–	0.0625 (≈ 0.0262 µM)	0.0625 (≈ 0.0262 µM)	0.125 (≈ 0.0524 µM)	0.25 (≈ 0.105 µM)	0/3 died at 2 × 30 mg/kg
